Values quoted from earlier work in US11141417B2 (priority 2013, dated 2021).
“Also recorded” adds a separate entry of the source.

Conditions: classification in words

## C[C@@H](c1ncncc1F)[C@](O)(Cn1cncn1)c1ccc(F)cc1F [Voriconazole, (2R,3S)-2-(2,4-difluorophenyl)-3-(5-fluoro-4-pyrimidinyl)-1-(1H-1,2,4triazol-1-yl)-2-butanol]
  solubility in water: only sparingly soluble in water; also recorded: very slightly soluble in water
